Test results published in patent US20220257484A1, “WHOLE MOUTH MALADOR CONTROL BY A COMBINATION OF ANTIBACTERIAL AND DEODORIZING AGENTS” (The Procter & Gamble Company, priority 2010, published 2022).
“And” between values parts separate entries of the source, which are not always exact repeats. Equal values may be shown once.

Assay: in-vitro headspace GC-MS odor-neutralizing test, Relative Odor Activity Value (ROAV)
Settings: recreated garlic odor, 0.05% active concentration, vs control, negative value indicates no reduction
Protocol: The odor-neutralizing or deodorization activity of target actives was evaluated against a recreated garlic odor using an in-vitro headspace gas chromatography-mass spectrometry (GC-MS) method described below. A mixture of five sulfur compounds (ethanethiol, 1-propanethiol, […], methyl allyl disulfide and […]) was used to simulate a garlic odor. […] [See e.g., J. Taucher, et al. J. Agric. Food Chem. (1996), 44 (12), 3778-3782; F. Suarez, et al. Am. J. Physiol. Gastrointest. Liver Physiol. (1999), 276: G425-G430; I. Laakso, et al. Planta Med. (1989), 55, 257-261; X. J. Cai, et al. J. Agric. Food Chem. (1995), 43, 1751-1753; T. Minami, et al. J. Food Sci. (1989), 54, 763-765.]
The following procedure and instrumentation were used to evaluate the relative odor-neutralizing activity of various compounds.
1) Purge product base (e.g., mouthrinse or dental solution) with nitrogen for 10 minutes. 2) Purge all sample preparation vials with stir bars inside for 1 minute. 3) Add 3960 μl product base to control vials (4 ml capacity) and 3560 μl product base to test sample vials (4 ml capacity). 4) Make garlic stock by mixing the following components in order: 600 μl ethanol; 500 μl ethanethiol; 80 μl 1-propanethiol; 30 μl […]; 20 μl methyl allyl disulfide; 70 μl […]. 5) Add 40 ul of garlic stock to each control and test sample vial. 6) Stir all samples to mix product base and garlic stock for a total time of 20 min. To each test sample vial, add 400 μl of test active after 15 min. of stirring and allow test active mix in and react for 5 min. 7) After mixing, transfer 50 μl each of control sample and test sample to nitrogen purged GC headspace vials. 8) Place control and test sample vials on headspace autosampler for GC analysis. Each sample is equilibrated at 32° C. for 3 min. before injection into the GC instrument.
A Relative OAV is calculated for each component by dividing its peak area by its odor threshold value. Odor threshold values for these compounds are reported in the literature. […] A negative value indicates no reduction in ROAV.

Row | Compound | % Reduction of ROAV [%] | also measured
1 | CCCCCC/C(C=O)=C\c1ccccc1 [Hexyl cinnamaldehyde, reference compound] | −1.19 | –
2 | CC(C)=CCCC(C)=CC=O [Citral, reference compound] | −19.54 | –
3 | CC(=O)/C=C/C1=C(C)CCCC1(C)C [β-Ionone] | 17.56 | –
4 | COc1ccc(C=CC=O)cc1 [para-Methoxycinnamaldehyde, reference compound] | −0.49 | –
5 | L(−) Carvone | 3.27 | –
6 | O=Cc1ccc2c(c1)OCO2 [Heliotropin, reference compound] | −2.92 | –
7 | O=Cc1ccccc1O [Salicylaldehyde, 2-Hydroxybenzaldehyde, reference compound] | −5.87 | –
8 | O=CC=Cc1ccccc1 [Cinnamaldehyde] | 10.73 | –
9 | CCCCCCCC=O [Octanal, reference compound] | −28.76 | % Reduction of ROAV (listed as octanal): no reduction of ROAV
10 | COc1ccc(C=O)cc1 [Anisaldehyde, 4-methoxybenzaldehyde] | 20.76 | % Reduction of ROAV (listed as 4-Methoxybenzaldehyde (Anisaldehyde)): 20.76%; % Reduction of ROAV (listed as anisaldehyde): 20.76% and > 20%
11 | CCc1occc(=O)c1O [Ethyl maltol, reference compound] | −3.46 | –
12 | CC1=CC(=O)[C@@H](C(C)C)CC1 [(−) Piperitone] | 10.19 | –
13 | COc1ccc(C=O)cc1OC [Methyl vanillin (Veratraldehyde), 3,4-Dimethoxybenzaldehyde] | 4.45 | –
14 | Cc1ccc(C=O)cc1 [4-methylbenzaldehyde] | 3.67 | –
